Activity calls are given as the source filed them.
How the values were obtained:
Type in all cases: functional, cell-based
[1] = tested on: DU-145; test: Induction of necrosis in human DU-145 cells at IC50 concentration incubated for 48 hrs by Annexin V-FITC/PI staining based flow cytometry
[2] = tested on: DU-145; test: Induction of apoptosis in human DU-145 cells at IC50 concentration incubated for 48 hrs by Annexin V-FITC/PI staining based flow cytometry
[3] = tested on: LoVo; test: Induction of cell cycle arrest in human LoVo cells assessed as accumulation of cells at S phase incubated for 48 hrs by flow cytometry
[4] = tested on: LoVo; test: Induction of apoptosis in human LoVo cells at IC50 concentration incubated for 48 hrs by Annexin V-FITC/PI staining based flow cytometry
[5] = tested on: LoVo; test: Induction of necrosis in human LoVo cells at IC50 concentration incubated for 48 hrs by Annexin V-FITC/PI staining based flow cytometry
[6] = tested on: DU-145; test: Induction of cell cycle arrest in human DU-145 cells assessed as accumulation of cells at G2/M phase incubated for 48 hrs by flow cytometry
[7] = tested on: PC-3; test: Induction of necrosis in human PC-3 cells at IC50 concentration incubated for 48 hrs by Annexin V-FITC/PI staining based flow cytometry
[8] = tested on: DU-145; test: Induction of cell cycle arrest in human DU-145 cells assessed as accumulation of cells at S phase incubated for 48 hrs by flow cytometry
[9] = tested on: PC-3; test: Induction of cell cycle arrest in human PC-3 cells assessed as accumulation of cells at S phase incubated for 48 hrs by flow cytometry
[10] = tested on: PC-3; test: Induction of apoptosis in human PC-3 cells at IC50 concentration incubated for 48 hrs by Annexin V-FITC/PI staining based flow cytometry
[11] = tested on: MDA-MB-231; test: Induction of apoptosis in human MDA-MB-231 cells at IC50 concentration incubated for 48 hrs by Annexin V-FITC/PI staining based flow cytometry
[12] = tested on: MDA-MB-231; test: Induction of cell cycle arrest in human MDA-MB-231 cells assessed as accumulation of cells at S phase incubated for 48 hrs by flow cytometry
[13] = tested on: MDA-MB-231; test: Induction of necrosis in human MDA-MB-231 cells at IC50 concentration incubated for 48 hrs by Annexin V-FITC/PI staining based flow cytometry
[14] = tested on: MDA-MB-231; test: Induction of cell cycle arrest in human MDA-MB-231 cells assessed as decrease in accumulation of cells at G2/M phase incubated for 48 hrs by flow cytometry
[15] = tested on: LoVo; test: Induction of cell cycle arrest in human LoVo cells assessed as decrease in accumulation of cells at G2/M phase incubated for 48 hrs by flow cytometry
[16] = tested on: HepG2; test: Induction of cell cycle arrest in human HepG2 cells assessed as decrease in accumulation of cells at S phase incubated for 48 hrs by flow cytometry
[17] = tested on: HCT-116; test: Induction of apoptosis in human HCT-116 cells at IC50 concentration incubated for 48 hrs by Annexin V-FITC/PI staining based flow cytometry
[18] = tested on: MCF7; test: Induction of apoptosis in human MCF7 cells at IC50 concentration incubated for 48 hrs by Annexin V-FITC/PI staining based flow cytometry
[19] = tested on: HepG2; test: Induction of necrosis in human HepG2 cells at IC50 concentration incubated for 48 hrs by Annexin V-FITC/PI staining based flow cytometry
[20] = tested on: MCF7; test: Induction of necrosis in human MCF7 cells at IC50 concentration incubated for 48 hrs by Annexin V-FITC/PI staining based flow cytometry
[21] = tested on: HepG2; test: Induction of late apoptosis in human HepG2 cells at IC50 concentration incubated for 48 hrs by Annexin V-FITC/PI staining based flow cytometry
[22] = tested on: LoVo; test: Induction of cell cycle arrest in human LoVo cells assessed as accumulation of cells at G0/G1 phase incubated for 48 hrs by flow cytometry
[23] = tested on: HCT-116; test: Induction of cell cycle arrest in human HCT-116 cells assessed as accumulation of cells at G0/G1 phase incubated for 48 hrs by flow cytometry
[24] = tested on: MCF7; test: Induction of cell cycle arrest in human MCF7 cells assessed as accumulation of cells at G0/G1 phase incubated for 48 hrs by flow cytometry
[25] = tested on: HCT-116; test: Induction of necrosis in human HCT-116 cells at IC50 concentration incubated for 48 hrs by Annexin V-FITC/PI staining based flow cytometry
[26] = tested on: MDA-MB-231; test: Induction of cell cycle arrest in human MDA-MB-231 cells assessed as accumulation of cells at G0/G1 phase incubated for 48 hrs by flow cytometry
[27] = tested on: Hep 3B2; test: Induction of necrosis in human Hep3B cells at IC50 concentration incubated for 48 hrs by Annexin V-FITC/PI staining based flow cytometry
[28] = tested on: Hep 3B2; test: Induction of early apoptosis in human Hep3B cells at IC50 concentration incubated for 48 hrs by Annexin V-FITC/PI staining based flow cytometry
[29] = tested on: Hep 3B2; test: Induction of cell cycle arrest in human Hep3B cells assessed as decrease in accumulation of cells at S phase incubated for 48 hrs by flow cytometry
[30] = tested on: Hep 3B2; test: Induction of cell cycle arrest in human Hep3B cells assessed as increase in accumulation of cells at G2/M phase incubated for 48 hrs by flow cytometry
[31] = tested on: Hep 3B2; test: Induction of cell cycle arrest in human Hep3B cells assessed as decrease in accumulation of cells at G0/G1 phase incubated for 48 hrs by flow cytometry

Measured: Activity

COc1cc(/C=C/c2ccc(O)cc2)cc(O)c1C
active: [1] | [2] | [3] | [4] | [5] | [6] | [7] | [8] | [9] | [10]

COc1cc(O)cc(/C=C/c2ccc(O)cc2)c1
active: [11] | [12] | [3] | [13] | [14] | [4] | [5] | [15]

COc1ccc([C@H]2c3c(/C=C/c4ccc(O)cc4)cc(OC)c(C)c3O[C@@H]3Oc4cc(O)cc(O)c4C(=O)[C@@H]32)cc1
active: [16] | [17] | [18] | [19] | [20] | [21] | [4] | [22] | [5] | [23] | [24] | [25] | [26]

O=C1/C(=C/c2ccc(O)cc2)COc2cc(O)cc(O)c21
active: [27] | [28] | [29] | [30] | [31]
